The values that follow are results of earlier work, collected in patent publication US11185594B2, “(Anti-HER2 antibody)-drug conjugate” (DAIICHI SANKYO COMPANY, LIMITED, priority 2014, dated 2021).

In series [1] the target is T1, topoisomerase I (Homo sapiens, UniProt P11387).
T1 sequence (P11387 1-765): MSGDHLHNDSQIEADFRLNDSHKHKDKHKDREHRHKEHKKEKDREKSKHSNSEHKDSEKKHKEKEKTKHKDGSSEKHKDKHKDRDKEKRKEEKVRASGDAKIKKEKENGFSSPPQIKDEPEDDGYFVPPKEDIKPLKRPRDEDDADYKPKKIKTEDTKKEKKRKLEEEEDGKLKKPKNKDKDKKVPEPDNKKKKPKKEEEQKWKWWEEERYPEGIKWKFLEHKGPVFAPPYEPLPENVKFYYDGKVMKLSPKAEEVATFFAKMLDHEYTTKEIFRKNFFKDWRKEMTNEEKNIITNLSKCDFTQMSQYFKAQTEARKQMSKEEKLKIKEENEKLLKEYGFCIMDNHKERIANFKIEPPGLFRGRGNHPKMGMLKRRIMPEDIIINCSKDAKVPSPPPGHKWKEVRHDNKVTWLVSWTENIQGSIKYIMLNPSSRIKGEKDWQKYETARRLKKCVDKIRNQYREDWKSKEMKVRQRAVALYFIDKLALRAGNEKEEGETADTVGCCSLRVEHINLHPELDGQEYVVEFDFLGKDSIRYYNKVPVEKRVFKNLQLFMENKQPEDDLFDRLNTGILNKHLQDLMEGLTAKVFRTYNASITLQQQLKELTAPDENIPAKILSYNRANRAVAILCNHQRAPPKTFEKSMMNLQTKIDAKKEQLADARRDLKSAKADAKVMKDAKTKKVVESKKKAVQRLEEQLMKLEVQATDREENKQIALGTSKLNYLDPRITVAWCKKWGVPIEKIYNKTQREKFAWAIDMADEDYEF
The note with it: compared with SN-38 and topotecan.

Series [2] relates to various cancer cells.
Series [3] concerns human tumor. The note with it: human tumor subcutaneously transplanted mouse model.

The structures appear in SMILES notation.

Consider `CC[C@@]1(O)C(=O)OCc2c1cc1n(c2=O)Cc2c-1nc1cc(F)c(C)c3c1c2[C@@H](N)CC3` [exatecan, (1S,9S)-1-amino-9-ethyl-5-fluoro-2,3-dihydro-9-hydroxy-4-methyl-1H,12H-benzo[de]pyrano[3′,4′:6,7]indolizino[1,2-b]quinoline-10,13(9H,15H)-dione], for which the “inhibitory activity on topoisomerase I” value in series [1] was “higher than SN-38”. Also, the “in vitro cytocidal activity” value in series [2] (against various cancer cells) is listed as “higher in vitro cytocidal activity was confirmed”. Further, in series [2] (cancer cells resistant to SN-38 or the like due to expression of P-glycoprotein), the “effect against resistant cancer cells” value was “confirmed to have the effect”. Also, the antitumor effect result in series [3] is “potent antitumor effect”.
